From publication PMC11766867, “Novel 2-Thiazolylhydrazone with Druggable Properties for Antifungal Application” (Journal of Fungi, 2025)
Values after ≈ are worked out from the molar mass of the structure shown. Where two headings read alike, the source gives them in different places.

Experiments:
chorioallantoic membrane = test: HET-CAM assay (Hen's Egg Test on the Chorioallantoic Membrane), German protocol; assay type: in vivo, Gallus gallus domesticus; settings: RW3 at 100 µM; for Irritation Score: 300 µL on chorioallantoic membrane, 300 s, mean of six eggs; for Classification (irritation potential): HET-CAM, German protocol
Protocol: Gallus gallus domesticus eggs (n = 3) at the eighth day of embryonic development were incubated at 37 ± 2 °C and 50% humidity until the test. On the tenth day, the solutions of RW3 (100 µM), 1% DMSO in saline (diluent), 0.1 mol/L NaOH (positive control), and saline solution (negative control) were placed on the chorioallantoic membrane. Following the application of 300 µL of each solution, according to the German protocol, the changes in the membrane were recorded for 300 s, indicating the time of onset of each observed phenomenon (hemorrhage, lysis, and coagulation) and using the following formula to calculate the Irritation Score (IS) (Equation (1)). Each experiment was repeated two times.IS = (301 − sH)/300 × 5 + (301 − sL)/300 × […] + (301 − sC)/300 × 9,(1) where H = hemorrhage, L—lysis, C = coagulation, and s = start second.
Additionally, to assess the possibility of irritation caused by RW3, the Hen’s Egg Test on the Chorioallantoic Membrane (HET-CAM) was performed. The HET-CAM assay is an in vivo semiquantitative test to evaluate the anti-inflammatory potential and anti-irritant properties, as well as the ocular toxicity of compounds/formulations. The benefits of this test include its simplicity, rapid execution, ease of use, and relatively low cost.

[1] = test system: Candidozyma (Candida) auris COLO 01; test: organism not typed; assay type: cell-based; settings: 35 °C, 48 h, visual endpoint; for MIC: read-out: Minimal Inhibitory Concentration (MIC) C. auris
Protocol: (§1) Broth microdilution testing was conducted following the guidelines in the CLSI document M27-A3 (2008) with modifications. Briefly, the following yeast were used in the present study: C. albicans SC5314, C. tropicalis ATCC 750, Candidozyma (Candida) auris COLO 01, C. parapsilosis ATCC 22019, Pichia kudravzevii (C. krusei) ATCC 20298, C. gattii ATCC 24065, C. neoformans ATCC 24067, and S. brasiliensis (189). All fungus strains were stored at a temperature of −80 °C. Before conducting the experiments, the strains were cultivated on Sabouraud dextrose agar (HiMedia, Mumbai, India) at 35 °C to ensure their purity and viability. The yeast phase of S. brasiliensis was grown on brain–heart infusion agar (BHI; Difco, Detroit, MI, USA) with two successive passages of 7 days at 35 °C and CO2 5% [11]. The compounds were tested at concentrations of 0.125–250 µg/mL. For comparative antifungal controls, fluconazole (Sigma-Aldrich, St. Louis, MO, USA), itraconazole (Sigma-Aldrich, St. Louis, MO, USA), and caspofungine (Sigma-Aldrich, St. Louis, MO, USA) were included. The plates were incubated at 35 °C for 48 h for yeast and for 7 days for S. brasiliensis at 35 °C and CO2 5%. The tests were performed in triplicate. The endpoints were determined visually by comparison with the endpoints of the drug-free growth-control well. The value of the minimum inhibitory concentration (MIC) was defined as the lowest extract concentration at which the well was optically clear and was expressed in µg/mL.

C. tropicalis ATCC 750 = test: Broth microdilution MIC (CLSI M27-A3 with modifications); assay type: cell-based; settings: Candida tropicalis, ATCC750; 35 °C, 48 h, visual endpoint; read-out: Minimal Inhibitory Concentration (MIC) C. tropicalis
Protocol: as §1

[2] = test system: C. parapsilosis ATCC 22019; test: as above; assay type: cell-based; settings: Lodderomyces parapsilosis, ATCC22019; 35 °C, 48 h, visual endpoint; read-out: Minimal Inhibitory Concentration (MIC) C. parapsilosis
Protocol: as §1

C. neoformans ATCC 24067 = test: as above; assay type: cell-based; settings: Cryptococcus neoformans, ATCC24067; 35 °C, 48 h, visual endpoint; read-out: Minimal Inhibitory Concentration (MIC) C. neoformans
Protocol: as §1

[3] = test system: Pichia kudravzevii (C. krusei) ATCC 20298; test: as above; assay type: cell-based; settings: ATCC20298, 35 °C, 48 h, visual endpoint, read-out: Minimal Inhibitory Concentration (MIC) P. kudravzevii
Protocol: as §1

C. gattii ATCC 24065 = test: as above; assay type: cell-based; settings: Cryptococcus gattii, ATCC24065; 35 °C, 48 h, visual endpoint; read-out: Minimal Inhibitory Concentration (MIC) C. gattii
Protocol: as §1

C. albicans SC5314 = test: as above; assay type: cell-based; settings: Candida albicans, 35 °C, 48 h, visual endpoint, read-out: Minimal Inhibitory Concentration (MIC) C. albicans
Protocol: as §1

S. brasiliensis (189) = test: Broth microdilution MIC (CLSI M27-A3 with modifications), yeast phase; assay type: cell-based; settings: Sporothrix brasiliensis, 168 h, 7 days at 35 °C and CO2 5%, read-out: Minimal Inhibitory Concentration (MIC) S. brasiliensis
Protocol: as §1, with “The value of the minimum inhibitory concentration (MIC) was defined as the lowest extract concentration at which the well was optically clear and was expressed in µg/mL.” left out

Caco-2 cells [4] = test: In vitro Caco-2 permeability assay; assay type: in vitro ADME, human; settings: high permeability: Papp > 10 × 10^−6 cm/s
Protocol: (§2) The Caco-2 cells (from ATCC) were cultured in 12-well Transwell® (Corning Incorporated, New York, NY, USA) insert filters for 21 days at a seeding density of 5 × 10^4 cells/cm^2 to achieve confluence and differentiation. The integrity of the monolayer was examined by measuring the transepithelial electrical resistance (TEER) with an epithelial voltammeter Millicell-ERS (Merck SA—German, Darmstadt, Germany). Only cell monolayers with a TEER above […] were used for the transport assays.
(§3) Transport experiments were conducted by adding 10 µg/mL RW3 in HBSS buffer at pH 6.8 to the apical compartments of the Transwell® plates (Corning, Corning, NY, USA), while the basolateral buffer was maintained at pH 7.4. The plates were agitated in an orbital shaker at 37 °C (100 rpm). Samples (100 µL) were collected from both the basolateral and apical sides at 30, 60, 90, 120, and 180 min. The apparent permeability coefficients (Papp, cm/s) were calculated using the Equation (2):Papp = […](2) where VR is the volume of the receiver compartment (basolateral or apical), DQ/Dt is the linear appearance rate of the compound on the receiver chamber (in ng/cm^3/s), A is the membrane surface area (cm^2), and C0 is the initial concentration in the donor compartment (ng/cm^3). This calculation requires that the sink conditions are fulfilled; therefore, only receiver concentrations below 10% of the donor concentration were employed in the calculations.

[5] = In vitro Caco-2 permeability assay; assay type: in vitro ADME, human; settings: human, Caco-2
Protocol: as §2, §3

Caco-2 cells [6] = test: In vitro Caco-2 cytotoxicity (MTT, ISO 10993-5); assay type: cell-based, human; settings: 10, 25 and 50 µg/mL; non-cytotoxic if viability exceeds 70% (ISO 10993-5)
Protocol: (§4) In vitro cytotoxicity assays were carried out following the protocol outlined in the ISO 10993-5 guideline (ISO, 2022). The human colon carcinoma cell line, Caco-2 cells (from ATCC), were cultured in 96-well plates for 24 h at a seeding density of 2 × 10^4 cells/well. The RW3 compound was dissolved in DMEM without phenol to prepare samples of 10, 25, and 50 µg/mL concentrations. Six replicates of each concentration for RW3 were assessed. This range of concentrations was chosen for reasons associated with the subsequent permeability tests. The experiments began by replacing the culture medium in each well with 100 µL of sample or control solutions, followed by a 4 h incubation at 37 °C in a CO2 incubator. Then, the solutions in each well were aspirated, and the cells were further incubated for 2 h with 30 µL of MTT solution (5 mg/mL, Sigma–Aldrich Corp., St. Louis, MO, USA, in DMEM and PBS buffer, 9:1 v/v). Next, formazan crystals were solubilized with 70 µL of isopropyl alcohol acidified with hydrochloric acid and quantified spectrophotometrically at 570 and 690 nm (Spectra Fluor plate reader, Tecan, Grödig, Austria). Cell viability was calculated based on the measured absorbance relative to the absorbance of the cells exposed to the negative controls (DMEM), which represented 100% cell viability, and for the positive control, we employed DMSO 50% in DMEM, which represented 0% cell viability.

[7] = In vitro Caco-2 cytotoxicity (MTT, ISO 10993-5); assay type: cell-based, human; settings: human, Caco-2 cells, 4 h, MTT, read-out: cell viability
Protocol: as §4

[8] = Saturation shake-flask solubility method; assay type: physicochemical; settings: for solubility at 24 h: aqueous USP buffer, thermodynamic from solid, n = 3, read-out: Average Solubility mg/mL (±SD)
Protocol: The equilibrium solubility of RW3 samples was assessed using the shake-flask method. The samples were dispersed in buffers described in the United States Pharmacopeia at pH values of 2.0, 4.5, and 6.8. For each reported solubility result, three independent shake-flask experiments were carried out in parallel. For each experiment, the solid sample was added carefully using a spatula to 2 mL of the aqueous buffer in a glass vial, while stirring, until a heterogeneous system (solid sample and liquid) was obtained. The solution containing solid excess of the sample was then capped, and stirred at 37 °C, 100 rpm, for 24 h in orbital shaker (Tecnal, Campinas, Brazil). An aliquot of 1 mL of the suspension was centrifuged, and the supernatant was then collected and filtered through a 0.2 µm PVDF filter. The resulting solution was then diluted 200× in the mobile phase, and the concentration of the sample in each aliquot was measured by the HPLC method. The RW3 concentrations were determined by injections of 10 µL of the samples via HPLC, using a Waters Alliance system (New Castle, DE, USA). Chromatographic separations were obtained using a PhenoSphere-NEXT® 5 µm C18 column (150 mm; 4,6 mm; Phenomenex®, Torrance, CA, USA) at 40° C. The mobile phase (1 mL/min) was composed of phosphate buffer 20 mM pH 4.0 and acetonitrile (50:50 v/v). The wavelength was set at 308 nm. The HPLC method employed was evaluated for linearity, precision, accuracy, and selectivity.
The determination of the solubility under physiological conditions, particularly considering the different pH levels throughout the gastrointestinal tract, is one of the most important biopharmaceutical parameters that must be generated during the early stages of developing a new drug for oral administration. In this study, the solubility determination of RW3 was carried out using the miniaturized shake flask test, as only a small amount of the compound under investigation was available. In the literature, there are publications that have successfully employed the miniaturized test.

SMILES | Irritation Score (chorioallantoic membrane) | Classification (irritation potential) (chorioallantoic membrane) | MIC [1] | MIC (C. tropicalis ATCC 750) | MIC [2] | MIC (C. neoformans ATCC 24067) | MIC [3] | MIC (C. gattii ATCC 24065) | MIC (C. albicans SC5314) | MIC (S. brasiliensis (189)) | further results
[Na+].[OH-] [0.1 M NaOH, NaOH, reference compound] | 12.00 | Severe irritant |  |  |  |  |  |  |  |  | 
CC[C@H](C)C[C@H](C)CCCCCCCCC(=O)N[C@H]1C[C@@H](O)[C@@H](NCCN)NC(=O)[C@@H]2[C@@H](O)CCN2C(=O)[C@H]([C@H](O)CCN)NC(=O)[C@H]([C@H](O)[C@@H](O)c2ccc(O)cc2)NC(=O)[C@@H]2C[C@@H](O)CN2C(=O)[C@H]([C@@H](C)O)NC1=O [Caspofungin, caspofungine] |  |  |  |  |  |  |  |  |  |  | Minimal Inhibitory Concentration (MIC) C. auris [1]: 0.05 µg/mL
OC(Cn1cncn1)(Cn1cncn1)c1ccc(F)cc1F [Fluconazole, fluconazole, reference compound] |  |  | 64 µg/mL (≈ 209 µM) | 0.25 µg/mL (≈ 0.816 µM) | 1 µg/mL (≈ 3.27 µM) | 2 µg/mL (≈ 6.53 µM) | 32 µg/mL (≈ 104 µM) | 2 µg/mL (≈ 6.53 µM) | 0.5 µg/mL (≈ 1.63 µM) |  | 
CCC(C)n1ncn(-c2ccc(N3CCN(c4ccc(OCC5COC(Cn6cncn6)(c6ccc(Cl)cc6Cl)O5)cc4)CC3)cc2)c1=O (stereo not drawn) [Itraconazole, itraconazole, reference compound] |  |  |  |  |  |  |  |  |  | 0.5 µg/mL (≈ 0.709 µM) | 
CCOC(=O)Cc1csc(N/N=C(\C)C(=O)O)n1 [RW3, (E)-2-(2-(4-(2-Ethoxy-2-oxoethyl)thiazol-2-yl)hydrazineylidene)-Propanoic Acid] | 0.76 | Non-irritant | 15.6 µg/mL (≈ 57.5 µM) | 125 µg/mL (≈ 461 µM) | 125 µg/mL (≈ 461 µM) | 3.9 µg/mL (≈ 14.4 µM) | 15.6 µg/mL (≈ 57.5 µM) | 7.8 µg/mL (≈ 28.8 µM) | 31.3 µg/mL (≈ 115 µM) | 15.6 µg/mL (≈ 57.5 µM) | permeability characterization (BCS) (Caco-2 cells [4]): high permeability compound; Papp A→B at 180 min, 10 µg/mL ([5]; apical−basolateral, 10 µg/mL, apical pH 6.8, basolateral pH 7.4, n = 3): 23.1 ± 9.69 ×10⁻⁶ cm/s; Papp B→A at 180 min, 10 µg/mL ([5]; basolateral−apical, 10 µg/mL, n = 3): 17.7 ± 7.19 ×10⁻⁶ cm/s; efflux ratio at 180 min, 10 µg/mL ([5]; read-out: Ratio Efflux Papp B-A/Papp A-B): 0.76; cytotoxic effects on the Caco-2 cell line (Caco-2 cells [6]): no cytotoxic effects; viability at 4 h, 10 µg/mL ([7]; Caco-2, 10 µg/mL): 100%; viability at 4 h, 25 µg/mL ([7]; Caco-2, 25 µg/mL): 88%; viability at 4 h, 50 µg/mL ([7]; Caco-2, 50 µg/mL): 86%; solubility at 24 h ([8]; aqueous buffer, buffer pH 4.5, 37 °C): 1.01 ± 0.01 mg/mL (≈ 3720 µM); solubility at 24 h ([8]; aqueous buffer, buffer pH 6.8, 37 °C): 2.76 ± 0.09 mg/mL (≈ 10200 µM); solubility at 24 h ([8]; simulated gastric fluid, buffer pH 2.0, 37 °C): 0.67 ± 0.001 mg/mL (≈ 2470 µM); maximum daily dose borderline for high solubility classification (BCS, dose/S0 ratio less than 250) ([8]; extrapolated from lowest solubility (pH 2.0)): 168 mg
